PubChem BioAssay (NCI)
“And” between values parts separate entries of the source, which are not always exact repeats. Identical values can stand only once.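 96-well plates; 48 h exposure; 5 concentrations. Endpoints by linear interpolation between flanking doses. Not reached: highest tested concentration assigned. GI50 = concentration required for 50% inhibition of growth. TGI: concentration producing complete growth inhibition.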

Experiments:
Test in all cases: inhibition of tumour cell growth, NCI panel, 48 h
CAKI-1 renal = tested on: CAKI-1 renal
PC-3 prostate = tested on: PC-3 prostate
SK-MEL-28 melanoma = tested on: SK-MEL-28 melanoma
KM12 colon = tested on: KM12 colon
OVCAR-4 ovarian = tested on: OVCAR-4 ovarian
DU-145 prostate = tested on: DU-145 prostate
HCC-2998 colon = tested on: HCC-2998 colon
RXF 393 renal = tested on: RXF 393 renal
TK-10 renal = tested on: TK-10 renal
HS 578T breast = tested on: HS 578T breast

Row | SMILES | GI50 (CAKI-1 renal) [µM] | TGI (CAKI-1 renal) [µM] | GI50 (PC-3 prostate) [µM] | TGI (PC-3 prostate) | GI50 (SK-MEL-28 melanoma) [µM] | TGI (SK-MEL-28 melanoma) [µM] | GI50 (KM12 colon) [µM] | TGI (KM12 colon) [µM] | GI50 (OVCAR-4 ovarian) [µM] | TGI (OVCAR-4 ovarian) [µM] | GI50 (DU-145 prostate) [µM] | TGI (DU-145 prostate) [µM] | GI50 (HCC-2998 colon) [µM] | TGI (HCC-2998 colon) [µM] | GI50 (RXF 393 renal) [µM] | TGI (RXF 393 renal) [µM] | GI50 (TK-10 renal) | TGI (TK-10 renal) [µM] | GI50 (HS 578T breast) [µM] | TGI (HS 578T breast)
1 | C=C1C(=O)O[C@H]2[C@H]1CC/C(Cn1cc(-c3ccsc3)nn1)=C\CC[C@@]1(C)O[C@@H]21 | 1.06 | 2.25 | 4.21 | 14.9 µM | 1.81 | 4.02 | 6.45 | 19.6 | 2.48 | 7.61 | 1.43 | 2.88 | 1.84 | 3.42 | 1.07 | 2.46 | 1.52 µM | 3.16 | 2.82 | 16 µM
2 | COc1ccc(-c2cc(-c3ccc(Cl)cc3)nc(SCCCCCCC(=O)NO)n2)cc1 | 1.32 | 7.47 | 1.69 | 12.7 µM | 2.43 | 11.7 | 2.2 | 13.1 | 2.05 | 43.1 | 1.76 | 15.4 | 2.01 | 8.37 | 1.27 | 3.69 | 2.12 µM | > 50 | 1.81 | > 50 µM
3 | CSC1SCC2C(=O)N(C)C(C(C)C)C(=O)OCC(NC(=O)c3cnc4ccccc4n3)C(=O)NC(C)C(=O)N(C)C1C(=O)N(C)C(C(C)C)C(=O)OCC(NC(=O)c1cnc3ccccc3n1)C(=O)NC(C)C(=O)N2C (stereo unspecified) | < 0.001 | – | – | 0.0132 µM and 0.0224 µM | < 0.001 | – | < 0.001 | – | < 0.001 | – | < 0.001 | – | < 0.001 | – | < 0.001 | – | < 0.001 µM and 0.0075 µM | – | < 0.001 | 0.00282 µM and 0.00359 µM
4 | NC(N)=NC(N)=Nc1ccc(S(N)(=O)=O)cc1 | – | > 100 | – | > 100 µM | – | > 100 | – | > 100 | – | > 100 | – | > 100 | – | > 100 | – | > 100 | – | > 100 | – | > 100 µM
5 | CCCCCCC/C=C1\CCC(CN(C)C)C1=O (stereo unspecified) | – | 31.6 | – | 27.6 µM | – | 31 | – | 13.9 | – | 33.6 | – | 27.8 | – | 32.1 | – | 12.1 | – | 16.5 | – | > 100 µM
6 | CC(C)=CCc1c(O)c(C(=O)CC(C)C)c(O)c2c(-c3ccccc3)cc(=O)oc12 | 11 | 48.3 | 5.71 | 39.8 µM | 2.94 | > 50 | 12 | > 50 | 9.98 | 35.6 | 15.5 | > 50 | 11.7 | > 50 | 15.8 | > 50 | 9.98 µM | > 50 | 9.75 | 49.9 µM
7 | CCC(=O)Nc1ncnc2ncn(C(=O)CC)c12 | – | > 100 | – | > 100 µM | – | > 100 | – | > 100 | – | > 100 | – | > 100 | – | > 100 | – | > 100 | – | > 100 | – | > 100 µM
8 | N#Cc1ccc(NC(=O)Nc2nc3ccc(OC(F)(F)F)cc3s2)cc1 | 1.59 | 9.12 | 1.36 | 12.2 µM | 2.31 | 12.3 | 1.02 | 6.89 | 1.64 | 44 | 2.7 | 13.6 | 1.28 | 6.04 | 1.87 | 7.39 | 1.22 µM | 7.03 | 1.78 | 7.65 µM
9 | C=C(C)[C@@H]1CC[C@]2(CN)CC[C@]3(C)[C@H](CC[C@@H]4[C@@]5(C)CCC(N)[C@@](C)(CO)[C@@H]5CC[C@]43C)[C@@H]12 (stereo partly specified) | 1.76 | 3.2 | 1.65 | 3.1 µM | 1.9 | 3.37 | 1.79 | 3.37 | 1.64 | 3.26 | 1.66 | 3.17 | 1.77 | 3.24 | 1.28 | 2.59 | 1.75 µM | 3.22 | 1.65 | 3.65 µM
10 | CN1CCN(Cc2ccc(NC(=O)c3cccc(C#Cc4c(N)ncc5ccc(F)cc45)c3)cc2C(F)(F)F)CC1 | 0.727 | 1.43 | 0.852 | 1.86 µM | 0.79 | 1.53 | 0.121 | 0.754 | 0.511 | 1.77 | 0.838 | 1.59 | 0.969 | 1.84 | 0.697 | 1.4 | 1.14 µM | 2.35 | 0.627 | 1.97 µM
11 | CC(C)Cc1ccc(C(C)/C=C2\CCC(CN3CCCCC3)C2=O)cc1 (stereo unspecified) | – | 20.4 | – | 17.5 µM | – | 11 | – | 6.36 | – | 14.2 | – | 31 | – | 17.7 | – | 5.73 | – | 8.95 | – | 45.6 µM
